# Source: patent publication US8048825B2, “Haloalkylsulfonanilide derivatives or salt thereof, herbicide comprising the derivatives as active ingredient, and use of the herbicide” (Nihon Nohyaku Co., Ltd., priority 2006, dated 2011)
# Tests used:
# Format in all cases: in vivo
# Lindernia procumbens [1] = test: Herbicidal efficacy on paddy field weeds of pre-emergence stage (Pre), Test Example 1; settings: 1000 g/ha as active ingredient, examined after 21 days
# Method in brief: (§1)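 Clay-loam pots sown with Scirpus juncoides, covered with soil containing Lindernia procumbens seed, flooded to 5 cm. Next day formulated compound applied dropwise to water at 1000 g/ha a.i. Greenhouse-grown; growth inhibition versus untreated scored 0–5 after 21 days.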
# Scirpus juncoides [2] = test: as above; settings: 1000 g/ha as active ingredient, examined after 21 days
# Method in brief: as §1
# Echinochloa crus-galli = test: Herbicidal effect on paddy field weeds of post-emergence stage (Post), Test Example 2; settings: one-leaf stage, 1000 g/ha as active ingredient, examined after 21 days
# Method in brief: (§2)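 Scirpus juncoides and Echinochloa crus-galli sown in clay loam, with Lindernia procumbens seed in the soil cover, under 5 cm flooding in greenhouse. At one-leaf stage, 1000 g/ha active ingredient applied to pot water. Efficacy scored visually 0–5 against untreated plants at 21 days after treatment.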
# Lindernia procumbens [3] = test: as above; settings: one-leaf stage, 1000 g/ha as active ingredient, examined after 21 days
# Method in brief: as §2
# Scirpus juncoides [4] = test: as above; settings: one-leaf stage, 1000 g/ha as active ingredient, examined after 21 days
# Method in brief: as §2
SMILES,Lindernia procumbens pre (herbicidal effect) (Lindernia procumbens [1]),Scirpus juncoides pre (herbicidal effect) (Scirpus juncoides [2]),Echinochloa crus-galli post (herbicidal effect) (Echinochloa crus-galli),Lindernia procumbens post (herbicidal effect) (Lindernia procumbens [3]),Scirpus juncoides post (herbicidal effect) (Scirpus juncoides [4])
CC1CCN(Cc2ccccc2N(C(=O)OCC(Cl)(Cl)Cl)S(=O)(=O)C(F)(F)F)C(=O)OC1 (racemic) [2-34],"4 (90%-99% herbicidal effect, phytotoxicity)","4 (90%-99% herbicidal effect, phytotoxicity)","4 (90%-99% herbicidal effect, phytotoxicity)","4 (90%-99% herbicidal effect, phytotoxicity)","4 (90%-99% herbicidal effect, phytotoxicity)"
CC1(C)CCN(Cc2ccccc2NS(=O)(=O)C(F)(F)F)C(=O)O1 [Compound 1-45],"4 (90%-99% herbicidal effect, phytotoxicity)","4 (90%-99% herbicidal effect, phytotoxicity)","4 (90%-99% herbicidal effect, phytotoxicity)","4 (90%-99% herbicidal effect, phytotoxicity)","4 (90%-99% herbicidal effect, phytotoxicity)"
CC(C)COC(=O)N(c1ccccc1CN1CCCCOC1=O)S(=O)(=O)C(F)(F)F [2-6],"4 (90%-99% herbicidal effect, phytotoxicity)","4 (90%-99% herbicidal effect, phytotoxicity)","4 (90%-99% herbicidal effect, phytotoxicity)","4 (90%-99% herbicidal effect, phytotoxicity)","4 (90%-99% herbicidal effect, phytotoxicity)"
CC(C)COC(=O)N(c1ccccc1CN1CCCOC1=O)S(=O)(=O)C(F)(F)F [Compound 1-6],"4 (90%-99% herbicidal effect, phytotoxicity)","4 (90%-99% herbicidal effect, phytotoxicity)","4 (90%-99% herbicidal effect, phytotoxicity)","4 (90%-99% herbicidal effect, phytotoxicity)","4 (90%-99% herbicidal effect, phytotoxicity)"
CC(C)(C)COC(=O)N(c1ccccc1CN1CCC2(CCCC2)OC1=O)S(=O)(=O)C(F)(F)F [Compound 1-143],"4 (90%-99% herbicidal effect, phytotoxicity)","4 (90%-99% herbicidal effect, phytotoxicity)","4 (90%-99% herbicidal effect, phytotoxicity)","4 (90%-99% herbicidal effect, phytotoxicity)","4 (90%-99% herbicidal effect, phytotoxicity)"
CCC1(c2ccccc2)CCN(Cc2ccccc2N(C(=O)OC)S(=O)(=O)C(F)(F)F)C(=O)O1 (centres unmarked) [Compound 1-317],"5 (100% herbicidal effect, phytotoxicity)","4 (90%-99% herbicidal effect, phytotoxicity)","4 (90%-99% herbicidal effect, phytotoxicity)","5 (100% herbicidal effect, phytotoxicity)","4 (90%-99% herbicidal effect, phytotoxicity)"
CCC1(CC)CCN(Cc2ccccc2NS(=O)(=O)C(F)(F)F)C(=O)O1 [Compound 1-102],"4 (90%-99% herbicidal effect, phytotoxicity)","4 (90%-99% herbicidal effect, phytotoxicity)","4 (90%-99% herbicidal effect, phytotoxicity)","4 (90%-99% herbicidal effect, phytotoxicity)","4 (90%-99% herbicidal effect, phytotoxicity)"
CC1(C)CCN(Cc2ccccc2NS(=O)(=O)C(F)(F)F)C(=S)O1 [Compound 1-58],"4 (90%-99% herbicidal effect, phytotoxicity)","4 (90%-99% herbicidal effect, phytotoxicity)","4 (90%-99% herbicidal effect, phytotoxicity)","4 (90%-99% herbicidal effect, phytotoxicity)","4 (90%-99% herbicidal effect, phytotoxicity)"
CC(C)COC(=O)N(c1ccccc1CN1CCC(C)(C)OC1=O)S(=O)(=O)C(F)(F)F [Compound 1-50],"4 (90%-99% herbicidal effect, phytotoxicity)","4 (90%-99% herbicidal effect, phytotoxicity)","4 (90%-99% herbicidal effect, phytotoxicity)","4 (90%-99% herbicidal effect, phytotoxicity)","4 (90%-99% herbicidal effect, phytotoxicity)"
CCC1(CC)CCN(Cc2ccccc2N(C(=O)OCC(C)(C)C)S(=O)(=O)C(F)(F)F)C(=S)O1 [Compound 1-120],"4 (90%-99% herbicidal effect, phytotoxicity)","4 (90%-99% herbicidal effect, phytotoxicity)","4 (90%-99% herbicidal effect, phytotoxicity)","4 (90%-99% herbicidal effect, phytotoxicity)","4 (90%-99% herbicidal effect, phytotoxicity)"
CCOC(=O)N(c1ccccc1CN1CCC(c2ccccc2)(C2CC2)OC1=O)S(=O)(=O)C(F)(F)F (centres unmarked) [Compound 1-185],"4 (90%-99% herbicidal effect, phytotoxicity)","4 (90%-99% herbicidal effect, phytotoxicity)","4 (90%-99% herbicidal effect, phytotoxicity)","4 (90%-99% herbicidal effect, phytotoxicity)","4 (90%-99% herbicidal effect, phytotoxicity)"
CCOC(=O)N(c1ccccc1CN1CCC(C)(CC)OC1=O)S(=O)(=O)C(F)(F)F (centres unmarked) [Compound 1-71],"4 (90%-99% herbicidal effect, phytotoxicity)","4 (90%-99% herbicidal effect, phytotoxicity)","4 (90%-99% herbicidal effect, phytotoxicity)","4 (90%-99% herbicidal effect, phytotoxicity)","4 (90%-99% herbicidal effect, phytotoxicity)"
CC(C)COC(=O)N(c1ccccc1CN1CCC(C)(C2CCC2)OC1=O)S(=O)(=O)C(F)(F)F (centres unmarked) [Compound 1-387],"5 (100% herbicidal effect, phytotoxicity)","5 (100% herbicidal effect, phytotoxicity)","5 (100% herbicidal effect, phytotoxicity)","5 (100% herbicidal effect, phytotoxicity)","5 (100% herbicidal effect, phytotoxicity)"
CC(C)COC(=O)N(c1ccccc1CN1CCC2(CCCC2)OC1=O)S(=O)(=O)C(F)(F)F [Compound 1-142],"4 (90%-99% herbicidal effect, phytotoxicity)","4 (90%-99% herbicidal effect, phytotoxicity)","4 (90%-99% herbicidal effect, phytotoxicity)","4 (90%-99% herbicidal effect, phytotoxicity)","4 (90%-99% herbicidal effect, phytotoxicity)"
CC(C)COC(=O)N(c1ccccc1CN1CC(C)(C)COC1=S)S(=O)(=O)C(F)(F)F [Compound 1-39],"4 (90%-99% herbicidal effect, phytotoxicity)","4 (90%-99% herbicidal effect, phytotoxicity)","4 (90%-99% herbicidal effect, phytotoxicity)","4 (90%-99% herbicidal effect, phytotoxicity)","4 (90%-99% herbicidal effect, phytotoxicity)"
CC1(C)CN(Cc2ccccc2NS(=O)(=O)C(F)(F)F)C(=O)OC1c1ccccc1 (centres unmarked) [Compound 1-261],"5 (100% herbicidal effect, phytotoxicity)","5 (100% herbicidal effect, phytotoxicity)","4 (90%-99% herbicidal effect, phytotoxicity)","5 (100% herbicidal effect, phytotoxicity)","4 (90%-99% herbicidal effect, phytotoxicity)"
CC(C)COC(=O)N(c1ccccc1CN1CCC(C(F)(F)F)(C(F)(F)F)OC1=O)S(=O)(=O)C(F)(F)F [Compound 1-343],"5 (100% herbicidal effect, phytotoxicity)","5 (100% herbicidal effect, phytotoxicity)","4 (90%-99% herbicidal effect, phytotoxicity)","5 (100% herbicidal effect, phytotoxicity)","4 (90%-99% herbicidal effect, phytotoxicity)"
CCOC(=O)N(c1ccccc1CN1CCC(CC)(C(C)C)OC1=O)S(=O)(=O)C(F)(F)F (racemic) [Compound 1-452],"5 (100% herbicidal effect, phytotoxicity)","5 (100% herbicidal effect, phytotoxicity)","4 (90%-99% herbicidal effect, phytotoxicity)","5 (100% herbicidal effect, phytotoxicity)","4 (90%-99% herbicidal effect, phytotoxicity)"
CCOC(=O)N(c1ccccc1CN1CCC(c2ccccc2)(C2CCC2)OC1=O)S(=O)(=O)C(F)(F)F (centres unmarked) [Compound 1-208],"4 (90%-99% herbicidal effect, phytotoxicity)","4 (90%-99% herbicidal effect, phytotoxicity)","4 (90%-99% herbicidal effect, phytotoxicity)","4 (90%-99% herbicidal effect, phytotoxicity)","4 (90%-99% herbicidal effect, phytotoxicity)"
